The text below walks through data of patent US6576642B2, “Diamide compounds and compositions containing the same” (Kowa Co., Ltd., priority 1996, dated 2003).

The subject of the test is production of IgE antibody. The test is described as follows: Evaluation of inhibitory effect on production of IgE antibody (mouse spleen B cells cultured with LPS and IL-4, IgE in supernatant by ELISA). Format: cell-based. Particulars: test agent at 10^-5 M; mouse (Balb/C) B cells, LPS + mouse IL-4, IgE in culture supernatant by ELISA. Here is the method: Evaluation of inhibitory effect on production of IgE antibody:
A spleen was enucleated from a mouse (Balb/C, male, aged 8 weeks) and shredded in 0.3% BSA/HBSS to prepare single cells by means of a 200-mesh screen. Further, the single cells were hemolyzed by 0.75% ammonium chloride-17 mM Tris solution to prepare a splenocyte suspension (1×10^7/ml) using RPMI 1640 medium/25 mM HEPES/0.3% BSA. After the suspension was reacted with a mouse anti-mouse Thy-1.2 monoclonal antibody (product of Cedarlane Co.) at 4° C. for 1 hour, the reaction mixture was centrifuged, and the sediment cells were suspended again (1×10^7/ml, RPMI/HEPES/BSA). After the suspension was then reacted with a low-cytotoxic rabbit complement (product of Cedarlane Co.) at 37° C. for 1 hour, killed cells were removed by specific gravity centrifugation using lympholyte M (product of Cedarlane Co.) to obtain a B cell fraction as viable cells.
After B cells (10^5/0.2 ml/well) were cultured for a day together with LPS (E. coli 026:B6, product of DIFCO Co.) using a 96-well plate, mouse IL-4 (product of Genzyme Co.) was added to conduct culture further for 7 days.
Each test was added on the first day of the culture, and the amount of IgE in a culture supernatant was meausred by ELISA after the culture, thereby calculating out the inhibitory effect of the agent on the production of an IgE antibody.
`COc1cc(/C=C/C=C/C(=O)N[C@@H]2CCCC[C@H]2NC(=O)/C=C/C=C/c2cc(OC)c(OC)c(OC)c2)cc(OC)c1OC` (relative stereo) [Example 15, trans-N,N′-bis[5-(3,4,5-trimethoxy-phenyl)penta-(2E,4E)-dienoyl]-1,2-diaminocyclohexane]: the “Inhibitory effect on production of IgE (%)” value (shortened to “Inhibitory effect … (%)”) was 100%.
As to `COc1cc(/C=C/C=C/C(=O)N(C)CCCCCCN(C)C(=O)/C=C/C=C/c2cc(OC)c(OC)c(OC)c2)cc(OC)c1OC` [Example 5, N,N′-bis[5-(3,4,5-trimethoxyphenyl)-penta-(2E,4E)-dienoyl]-N,N′-dimethyl-1,6-diaminohexane], the “Inhibitory effect … (%)” value is recorded as 90%.
On to `COc1cc(/C=C/C=C/C(=O)NCc2ccc(CNC(=O)/C=C/C=C/c3cc(OC)c(OC)c(OC)c3)cc2)cc(OC)c1OC` [Example 22, N,N′-bis[5-(3,4,5-trimethoxyphenyl)-penta-(2E,4E)-dienoyl]-1,4-bis(aminomethyl)benzene], for which the “Inhibitory effect … (%)” value is 90%.
Under `COc1cc(/C=C/C=C/C(=O)Nc2ccccc2NC(=O)/C=C/C=C/c2cc(OC)c(OC)c(OC)c2)cc(OC)c1OC` [Example 26, N,N′-bis[5-(3,4,5-trimethoxyphenyl)-penta-(2E,4E)-dienoyl]-1,2-diaminobenzene] stands 85%.
Regarding `COc1cc(/C=C/C=C/C(=O)Nc2cccnc2NC(=O)/C=C/C=C/c2cc(OC)c(OC)c(OC)c2)cc(OC)c1OC` [Example 38, 2,3-bis[5-(3,4,5-trimethoxyphenyl)-penta-(2E,4E)-dienoylamino]pyridine], the “Inhibitory effect … (%)” value was 80%.
